# Experimental data published in ChEMBL document CHEMBL5728291, “Pyrazole MAGL inhibitors” (2021).
# Target: T1, Monoglyceride lipase (Homo sapiens, UniProt Q99685)
# T1 sequence (Q99685 whole entry): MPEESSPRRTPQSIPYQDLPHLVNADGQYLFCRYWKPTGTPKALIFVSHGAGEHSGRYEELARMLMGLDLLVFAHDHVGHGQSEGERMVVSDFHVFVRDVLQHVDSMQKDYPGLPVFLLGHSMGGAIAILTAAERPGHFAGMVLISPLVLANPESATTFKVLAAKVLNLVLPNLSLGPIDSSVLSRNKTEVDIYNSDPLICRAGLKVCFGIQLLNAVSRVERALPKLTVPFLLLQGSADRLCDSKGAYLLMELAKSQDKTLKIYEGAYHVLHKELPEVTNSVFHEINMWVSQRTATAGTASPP
# Assay: In Vitro Competitive Activity-Based Protein Profiling: Proteomes (mouse brain membrane fraction for mouse assays; human prefrontal cortex membrane fractions for human assays) (50 mL, 1.0 mg/mL total protein concentration) were preincubated with varying concentrations of inhibitors at 37° C. After 30 min, FP-Rh (1.0 mL, 50 mM in DMSO) was added and the mixture was incubated for another 30 min at 37° C.
smiles,measurement,value
O=C(O)c1ccn(C(=O)N2C[C@H]3C[C@H](Oc4cc(Cl)ccc4C(F)(F)F)C[C@H]3C2)n1,IC50,< 100 nM
